Source: patent US7498309B2, “Pharmaceutical compositions for bioactive peptide agents” (Sangstat Medical Corporation, priority 2003, dated 2009)
“Also recorded” adds a separate entry of the source.

Legend:
[1] = tested on: cynomolgus monkeys with chronic and naturally occurring colitis; experiment: RDP58 capsule therapy in primates suffering from colitis (stool quality scores); assay type: in vivo; settings: animal MCY33636; capsule from day 0, treatment extended to day 21
[2] = tested on: cynomolgus monkeys with chronic and naturally occurring colitis; experiment: as above; assay type: in vivo; settings: for response to therapy: capsule from day 0
Method: RDP58 oral therapy is believed to have a beneficial effect on resolution of clinical signs of chronic colitis in primates suffering from a naturally occurring colitis like condition. In these studies, RDP58 was administered in aqueous form (i.e., powder dissolved in water) by oral gavage. The objective of the pilot study described in this example was to analyze the effect of administering RDP58 in capsule form to primates suffering from a chronic, naturally occurring, colitis-like condition. Data generated from this study was compared to data obtained from previous studies where RDP58 peptide was administered in aqueous form.
Methods. Four cynomolgus monkeys, with documented clinical histories of chronic and naturally occurring colitis, were selected for the study. All animals were monitored for 7 days before initiating therapy. Animals were dosed with one capsule (approximately 13 mg per capsule) every day, starting on Day 0, for 14 days. A commercially available cat pilling gun was used. Disease activity was monitored using stool quality scores. The scoring system used was the following: 1=Normal; 2=Loose stool; 3=Watery diarrhea; and 4=Bloody diarrhea. Response is defined as an improvement in stool quality score by at least 1 point.
Animals were physically examined twice per day. After 14 days, RDP58 therapy was stopped and animals were monitored for 7 additional days. Stool quality was documented through this period.

[3] = Fill formulation: solubility and dispersion of the peptide in Labrafil M 1944 CS; assay type: physicochemical
Method: Fill Formulation. […] The RDP58 peptide was not soluble in Labrafil M 1944 CS, thus a stable suspension of the peptide was made using Colloidal Silicon Dioxide, USP (Aerosil 300) as a suitable dispersing agent. Bench trials were performed to determine the needed quantity of Aerosil 300, which would provide a sufficient viscosity increase to maintain the peptide uniformly suspended for a minimum of 24 hours while allowing the fill formulation to remain flowable or pumpable. The fill formulation for the a 100 mg RDP58 softgel capsule is the following: […]

[4] = all animals studied, oral capsule

CCCC[C@@H](NC(=O)[C@H](N)CCCNC(=N)N)C(=O)N[C@H](CCCC)C(=O)N[C@H](CCCC)C(=O)N[C@H](CCCNC(=N)N)C(=O)N[C@H](CCCC)C(=O)N[C@H](CCCC)C(=O)N[C@H](CCCC)C(=O)NCC(=O)N[C@H](Cc1ccc(O)cc1)C(N)=O [RDP58, NH2-(D)Arg-(D)nL-(D)nL-(D)nL-(D)Arg-(D)nL-(D)nL-(D)nL-Gly-(D)Tyr-NH2]
response to therapy [1]: response was immediate | negative side effects [2, 4]: None of the animals studied showed negative side effects | tolerability of dosing [2, 4]: well tolerated | effect on disease activity / therapeutic response ([2]; all four animals, one capsule (approximately 13 mg) orally every day for 14 days, stool quality scores): positive effects; also recorded: positive therapeutic response | response to therapy ([2]; animal 33558): immediate response | response to re-treatment ([2]; animal 33558, re-treated starting on day 23): Response to therapy was immediate | time animal remained normal after therapy was stopped ([2]; animal 33558, therapy stopped on day 14): 4 to 5 days | response to therapy ([2]; animal MCY33560): immediate response | duration of normal stool quality ([2]; animal MCY33636): 8 days | response to therapy ([2]; animal MCY33639): immediate positive response | response to re-treatment ([2]; animal MCY33639, re-treated on day 23): immediate positive response | dispersion of the peptide ([3]; in Labrafil M 1944 CS): enhanced dispersion | solubility in Labrafil M 1944 CS ([3]; suspending agent Labrafil M 1944 CS): not soluble
